This passage reports T/C results from PubChem BioAssay AID206 (DTP/NCI, 2004).

This experiment deals with nude mice, HT29 intrarenal xenograft, tumor weight T/C. Briefly: NCI In Vivo Anticancer Drug Screen. Data for tumor model HT29;CX-1 Human Adenocarcinoma (MER+) (intrarenal inoculation) in NU/NU Swiss (nude) mice. Particulars: endpoint: mean tumor weight change, higher = larger tumour. In short, it runs like this: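 Tumor-bearing mice received test compound or vehicle, and tumor size or survival was recorded. Values are the treated-group measurement divided by the vehicle-treated control measurement.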

Where [1] appears, read: dose: 200.0 mg/kg/injection, schedule: Q01DX010 (sc), vehicle: Klucel (hydroxypropylcellulose) (HPC).
Where [2] appears, read: dose: 400.0 mg/kg/injection, schedule: Q01DX010 (sc), vehicle: Klucel (hydroxypropylcellulose) (HPC).
The mark [3] stands for this setting: dose: 300.0 mg/kg/injection, schedule: Q04DX004 (sc), vehicle: saline.
Where [4] appears, read: dose: 600.0 mg/kg/injection, schedule: Q04DX004 (sc), vehicle: saline.
Setting [5] is: dose: 75.0 mg/kg/injection, schedule: Q04DX004 (sc), vehicle: saline.
Where [6] appears, read: dose: 150.0 mg/kg/injection, schedule: Q04DX004 (sc), vehicle: saline.

Molecules are shown by their SMILES. Where “and” joins values, the source holds several entries; their conditions need not be identical. Equal entries are not always repeated. Inconclusive results are not listed.

Regarding `N#CC(C#N)=C/C=C/c1cccc([N+](=O)[O-])c1`, the T/C runs as follows: (dose: 100.0 mg/kg/injection, schedule: Q01DX010 (sc), vehicle: Klucel (hydroxypropylcellulose) (HPC)) 40 % of control; under setting [1], 38 % of control; under setting [2], 74 % of control; (dose: 800.0 mg/kg/injection, schedule: Q01DX010 (sc), vehicle: Klucel (hydroxypropylcellulose) (HPC)) 61 % of control.

`COc1cccc2c1C(=O)c1c(O)c3c(c(O)c1C2=O)C[C@@](O)(/C(C)=N\NC(=O)CO)C[C@@H]3OC1CC(N)C(O)C(C)O1` (stereo not given in full): the T/C runs as follows: (dose: 15.63 mg/kg/injection, schedule: Q04DX004 (sc), vehicle: saline) 52 % of control; (dose: 31.25 mg/kg/injection, schedule: Q04DX004 (sc), vehicle: saline) 16 % of control; (dose: 62.5 mg/kg/injection, schedule: Q04DX004 (sc), vehicle: saline) 18 % of control.

In the case of `CCCCCC[C@@H](O)C/C=C\CCCCCCCC(=O)OCCO`, the T/C under setting [3] is 21 % of control; the T/C under setting [4] was 155 % of control; the T/C (dose: 1200.0 mg/kg/injection, schedule: Q04DX004 (sc), vehicle: saline) is 169 % of control; the T/C (dose: 2400.0 mg/kg/injection, schedule: Q04DX004 (sc), vehicle: saline) is 230 % of control.

`N=c1nc2n(cc1F)[C@@H]1O[C@H](CO)[C@@H](O)[C@@H]1O2`: the T/C by setting is: (dose: 300.0 mg/kg/injection, schedule: Q04DX004 (sc), vehicle: suspension in saline) 61 % of control; (dose: 1200.0 mg/kg/injection, schedule: Q04DX004 (sc), vehicle: suspension in saline) 60 % of control.

Take `CC1=CC(=NN=c2cc(C)n([O-])c(C)c2)C=C(C)[N+]1=O`: the T/C (dose: 100.0 mg/kg/injection, schedule: Q04DX004 (sc), vehicle: suspension in saline) was 73 % of control; the T/C (dose: 200.0 mg/kg/injection, schedule: Q04DX004 (sc), vehicle: suspension in saline) is 48 % of control; the T/C (dose: 400.0 mg/kg/injection, schedule: Q04DX004 (sc), vehicle: suspension in saline) is 40 % of control; the T/C (dose: 800.0 mg/kg/injection, schedule: Q04DX004 (sc), vehicle: suspension in saline) was 39 % of control.

Consider `CN(C)CC(Cl)CCl` (stereo not given), for which the T/C by setting is: under setting [5], 101 % of control; under setting [6], 117 % of control; under setting [3], 50 % of control.

On to `CC(=O)OC1C(O)C(C)OC(OC2C(OC(=O)C3CCC4C(C3)OC3(CC(OC(=O)/C=C/c5ccccc5)C(C)CO3)C43CO3)OC(C)C(O)C2OC(C)=O)C1O` (stereo not given), for which the T/C is 100 % of control (dose: 15.0 mg/kg/injection, schedule: Q04DX004 (sc), vehicle: distilled water + Tween-80); 62 % of control (dose: 30.0 mg/kg/injection, schedule: Q04DX004 (sc), vehicle: distilled water + Tween-80); 61 % of control (dose: 60.0 mg/kg/injection, schedule: Q04DX004 (sc), vehicle: distilled water + Tween-80); 91 % of control (dose: 120.0 mg/kg/injection, schedule: Q04DX004 (sc), vehicle: distilled water + Tween-80).

Consider `CN(C)c1ccc2c(N(C)C)cc(N(C)C)nc2c1`, for which the T/C (dose: 75.0 mg/kg/injection, schedule: Q04DX004 (sc), vehicle: Klucel (hydroxypropylcellulose) (HPC)) was 97 % of control.

Turning to `CCCCCCCCCCCCCCCC(=O)Nc1ccn(C2OC(CO)C(O)C2O)c(=O)n1` (stereo not given), for the setting “dose: 56.25 mg/kg/injection, schedule: Q04DX004 (sc), vehicle: water”, the T/C is 114 % of control.

`CN(CCN(C)C(=O)CCOS(C)(=O)=O)C(=O)CCOS(C)(=O)=O`: the T/C under setting [5] is 64 % of control and the T/C under setting [6] is 36 % of control.

In the case of `C=CCNc1nc2c(s1)CCc1cc(OC)c(OC)cc1-2`, the T/C was 38 % of control (dose: 150.0 mg/kg/injection, schedule: Q04DX004 (sc), vehicle: saline with Tween-80); 114 % of control (dose: 300.0 mg/kg/injection, schedule: Q04DX004 (sc), vehicle: saline with Tween-80); 113 % of control (dose: 600.0 mg/kg/injection, schedule: Q04DX004 (sc), vehicle: saline with Tween-80); 80 % of control (dose: 1200.0 mg/kg/injection, schedule: Q04DX004 (sc), vehicle: saline with Tween-80).

On to `CN(C)CCCNc1c2ccccc2nc2cccc([N+](=O)[O-])c12`, for which, under “dose: 0.37 mg/kg/injection, schedule: Q04DX004 (sc), vehicle: saline”, the T/C is 226 % of control.

For the molecule `CC(=O)O[C@H]1C(=O)[C@@]2(C)[C@H]([C@H](OC(=O)c3ccccc3)[C@]3(O)C[C@H](OC(=O)[C@H](O)[C@@H](NC(=O)c4ccccc4)c4ccccc4)C(C)=C1C3(C)C)[C@]1(OC(C)=O)CO[C@@H]1C[C@@H]2O`, under setting [2], the T/C is 3 % of control and 12 % of control and 16 % of control.

Regarding `OCCN1CCN(CCCN2c3ccccc3Sc3ccc(C(F)(F)F)cc32)CC1`, the T/C runs as follows: (dose: 1.25 mg/kg/injection, schedule: Q01DX010 (sc), vehicle: saline) 121 % of control; (dose: 2.5 mg/kg/injection, schedule: Q01DX010 (sc), vehicle: saline) 58 % of control; (dose: 5.0 mg/kg/injection, schedule: Q01DX010 (sc), vehicle: saline) 118 % of control; (dose: 10.0 mg/kg/injection, schedule: Q01DX010 (sc), vehicle: saline) 92 % of control.

As to `C/C=C(\C)c1cc(=O)c2c(C)cc3c(c2o1)C(=O)c1c(O)c(C2CC(C)(N(C)C)C(O)C(C)O2)cc(C2CC(N(C)C)C(O)C(C)O2)c1C3=O` (stereo not given), the T/C is 78 % of control (dose: 0.5 mg/kg/injection, schedule: Q04DX004 (sc), vehicle: saline); 112 % of control (dose: 2.0 mg/kg/injection, schedule: Q04DX004 (sc), vehicle: saline); 82 % of control (dose: 4.0 mg/kg/injection, schedule: Q04DX004 (sc), vehicle: saline); 104 % of control (dose: 4.0 mg/kg/injection, schedule: Q04DX004 (sc), vehicle: suspension in saline); 64 % of control (dose: 8.0 mg/kg/injection, schedule: Q04DX004 (sc), vehicle: suspension in saline); 90 % of control (dose: 16.0 mg/kg/injection, schedule: Q04DX004 (sc), vehicle: suspension in saline).

Consider `Nc1ccn(C2OC(CO)C(O)C2O)c(=O)n1` (stereo not given), for which the T/C was 100 % of control (dose: 15.63 mg/kg/injection, schedule: Q01DX010 (sc), vehicle: water); 102 % of control (dose: 31.25 mg/kg/injection, schedule: Q01DX010 (sc), vehicle: water); 62 % of control (dose: 500.0 mg/kg/injection, schedule: Q04DX004 (sc), vehicle: saline); 77 % of control under setting [4]; 19 % of control (dose: 1000.0 mg/kg/injection, schedule: Q04DX004 (sc), vehicle: saline).

Regarding `OC(CBr)C(O)C(O)C(O)CBr` (stereo not given), the T/C reads like this: (dose: 15.0 mg/kg/injection, schedule: Q01DX010 (sc), vehicle: Klucel (hydroxypropylcellulose) (HPC)) 82 % of control; (dose: 30.0 mg/kg/injection, schedule: Q01DX010 (sc), vehicle: Klucel (hydroxypropylcellulose) (HPC)) 44 % of control; (dose: 120.0 mg/kg/injection, schedule: Q01DX010 (sc), vehicle: Klucel (hydroxypropylcellulose) (HPC)) 43 % of control; under setting [1], 101 % of control; under setting [2], 59 % of control.

As to `Cc1[nH]c(=O)[nH]c(=O)c1N(CCF)CCCl`, the T/C reads like this: (dose: 10.0 mg/kg/injection, schedule: Q01DX010 (sc), vehicle: Klucel (hydroxypropylcellulose) (HPC)) 117 % of control; (dose: 20.0 mg/kg/injection, schedule: Q01DX010 (sc), vehicle: Klucel (hydroxypropylcellulose) (HPC)) 95 % of control; (dose: 40.0 mg/kg/injection, schedule: Q01DX010 (sc), vehicle: Klucel (hydroxypropylcellulose) (HPC)) 48 % of control.

As for `Cc1c(N)nc(C(CC(N)=O)NCC(N)C(N)=O)nc1C(=O)NC(C(=O)NC(C)C(O)C(C)C(=O)NC(C(=O)NCCc1nc(-c2nc(C(=O)NCCCNC(C)c3ccccc3)cs2)cs1)C(C)O)C(OC1OC(CO)C(O)C(O)C1OC1OC(CO)C(O)C(OC(N)=O)C1O)c1cnc[nH]1` (stereo not given), the T/C is 64 % of control (dose: 2.0 mg/kg/injection, schedule: Q01DX010 (sc), vehicle: saline); 65 % of control (dose: 4.0 mg/kg/injection, schedule: Q01DX010 (sc), vehicle: saline); 76 % of control (dose: 8.0 mg/kg/injection, schedule: Q01DX010 (sc), vehicle: saline); 65 % of control (dose: 16.0 mg/kg/injection, schedule: Q01DX010 (sc), vehicle: saline).

Turning to `Cn1cc(C2NC(=O)c3ccccc3N2)c2ccccc21` (stereo not given), the T/C reads like this: (dose: 300.0 mg/kg/injection, schedule: Q04DX004 (sc), vehicle: Klucel (hydroxypropylcellulose) (HPC)) 97 % of control; (dose: 600.0 mg/kg/injection, schedule: Q04DX004 (sc), vehicle: Klucel (hydroxypropylcellulose) (HPC)) 116 % of control; (dose: 1200.0 mg/kg/injection, schedule: Q04DX004 (sc), vehicle: Klucel (hydroxypropylcellulose) (HPC)) 60 % of control; (dose: 2400.0 mg/kg/injection, schedule: Q04DX004 (sc), vehicle: Klucel (hydroxypropylcellulose) (HPC)) 94 % of control.
